Measurements: patent US5908868A, “Retinol derivatives useful for enhancing immune response” (priority 1995, dated 1999)
“Also recorded” adds a separate entry of the source.

Experiments:
thymocytes [1] = experiment: Proliferation of anti-CD3e activated thymocytes in serum-free medium; format: cell-based, BALB/c mouse; details: for proliferative response: anti-CD3, retinol 3×10^-6 M or 14HRR 6×10^-7 M; for growth over a four day period: retinol 3×10^-6 M, 14HRR 6×10^-7 M, human serum 3%
Procedure: FIG. 14A: Purified BALB/c thymocytes were activated with immobilized anti-CD3e antibody and cultivated for four days in ITLB medium with or without retinol (3×10^-6 M), 14HRR (6×10^-7 M) (fresh 14HRR was added every 12 hours), human serum (3%) or FCS (10%) at the cellular densities shown. Proliferation was assayed by tritiated thymidine incorporation into cellular DNA. The SDs were below 20%.
FIG. 14B: BALB/c thymocytes (10^6 /ml) were added to microtiter plates coated with titrated amounts of anti-CD3e antibody with […] retinol or without, as indicated. Proliferation was measured in hexaduplicate wells on day 3 by ^3 H thymidine incorporation assay.
FIG. 14C: BALB/c thymocytes (3×10^6 /ml) were activated with anti-CD3e mAb as FIG. 1A. The total number of viable cells was determined by counting trypan blue-excluding cells, and those of blast cells by counting viable large cells in six replicate wells. Because of the relatively low cell density required in the culture (see FIG. 14A), the numbers reported for blast cells are best estimates.
Purified thymocytes (5×10^5 cells/well) were stimulated by TCR crosslinking with immobilized anti-CD3e antibody (FIG. 15A) or 0.4 μg/ml Con A (FIG. 15B) in serum-free ITLB medium. The indicated amounts of retinoids were added either once at the beginning of the experiment (marked as "1x") or every 12 hours thereafter (marked as "6x"). DNA synthesis was measured after 72 hours by tritiated thymidine uptake as described.
Purified thymocytes (10^5 cells/well) were activated with anti-CD3 antibody in ITLB medium with or without retinol (3×10^-6 M), 14HRR (6×10^-7, added every 12 hours or human serum (3%)). DNA synthesis was measured daily by a 4 hour pulse of tritiated thymidine. SDs were ≤12%.
Thymocytes (5×10^4 /well) were activated by immobilized anti-CD3 mAb in medium ITLB. Retinol (2×10^-6 M) was added at initiation of culture, or delayed by 12 hours and 24 hours, respectively, or omitted altogether. ^3 H thymidine pulses of 4 hours were used to measure DNA synthesis of hexaduplicate wells. (SDs were 20% or less.)
Thymuses of 3 to 6-week-old BALB/c mice were teased in serum-free RPMI medium supplemented with 1% BSA, 10^-6 M linoleic acid and antibiotics. Depletion of accessory cells was achieved by two cycles of complement-dependent lysis with a mixture of anti-IA^d (5 μg/ml) and anti-Itd (1:500 diluted ascites fluid). Briefly, cells were incubated on ice for 30 minutes with Ia antibodies, spun down, resuspended in 1:40 diluted rabbit complement, and incubated at 37° C. for 45 minutes. Incubations and two subsequent washes were carried out with RPMI medium containing 1% BSA. Cell viability was evaluated by trypan blue dye exclusion. To determine the extent of depletion of accessory cells, samples were stained with FITC-conjugated anti-Fc receptor antibody and analyzed by flow cytometry on a FACScan instrument (Becton Dickinson). No FcR-bearing cells were detected by this procedure.
Cells were cultured in serum-free medium, referred to as ITLB, containing RPMI 1640 supplemented with 8×10^-7 M insulin (5 μg/ml), 7×10^-8 M transferrin (5 μg/ml), 2×10^-6 M linoleic acid, 2×10^-6 M delipidated BSA (0.12 mg/ml), 2 mM L-glutamine, 1 mM sodium pyruvate and antibiotics. They were seeded into 96-well flat-bottom plates at varying cellular densities in a final volume of 100 μl. In control experiments, cells were cultured in medium containing 10% FCS or 3% human serum and 5×10^-5 M 2 ME. T cells and thymocytes were activated with immobilized, purified anti-mab CD3e or by the addition of Con A in the presence or absence of different concentrations of retinoids. Unless indicated otherwise, retinoids were replenished every 12 hours to maintain a reasonably constant concentration of these labile compounds in culture. […]

B lymphocytes = details: cited from earlier work
N-tera2 = experiment: Retinol metabolism; format: in vitro ADME, human
Procedure: (§1) FBS. The FBS was preincubated at room temperature with 14.4 uCi [^3 H
(§2) retinol (NEN) for 4 h. The cell pellet was washed twice with PBS. The
(§3) retinoid were extracted according to MClean et al. 90 and separated on an
(§4) analytical c18 reverse phase column according to FIG. 7. The DPM wer
(§5) determined using an online scintillation counter.

SKL3 = experiment: Retinol metabolism; format: in vitro ADME, human
Procedure: as §1, §2, §3, §4, §5

SK-N-SH = experiment: Retinol metabolism; format: in vitro ADME, human
Procedure: as §1, §2, §3, §4, §5

Ket = experiment: Retinol metabolism; format: in vitro ADME, human
Procedure: as §1, §2, §3, §4, §5

Raji (37°) = experiment: Retinol metabolism; format: in vitro ADME, human
Procedure: as §1, §2, §3, §4, §5

RPMI = experiment: Retinol metabolism; format: in vitro ADME; details: RPMI leukemia (ALL)
Procedure: as §1, §2, §3, §4, §5

SK3886 = experiment: Retinol metabolism; format: in vitro ADME
Procedure: as §1, §2, §3, §4, §5

ERLD = experiment: Retinol metabolism; format: in vitro ADME
Procedure: as §1, §2, §3, §4, §5

thymocytes [2] = experiment: Growth-stimulating effect of retinol on anti-CD3 activated thymocytes in the presence of interleukins; format: cell-based, BALB/c mouse; details: 3 days
[3] = Stability (half-life) in serum-free tissue culture; format: in vitro ADME
fibroblasts = experiment: Expression of immediate early genes; format: cell-based; details: unpublished work
[4] = previous analyses with B lymphocytes (33)

CC1=C(/C=C/C(C)=C/C=C/C(C)=C/CO)C(C)(C)CCC1 [retinol, all-trans retinol]
proliferative response (thymocytes [1]): vigorous responses were elicited | response when supplied together with activation signal (thymocytes [1]; no delay): highest responses | reduction of sufficient retinol concentration on repeated feeding (thymocytes [1]; replenished twice daily, 3-day culture): five- to ten-fold lower | growth over a four day period (thymocytes [1]): exponential growth | viability (thymocytes [1]; retinol by itself): maintain a higher state of viability than anti-CD3e "only" stimulation, or omission of test reagents altogether | effect of 12-hour delay in addition (thymocytes [1]; retinol delayed 12 hours): stagnation | effect of delayed addition (thymocytes [1]; retinol delayed by 24 hours): complete failure of activation | T cell activation (thymocytes [1]; retinol on its own): no discernible T cell activation | support of B cell growth/proliferation (B lymphocytes; previous studies): necessary for the growth of B lymphocytes | Total cts. (N-tera2; N-tera2): 13.5 × 10^5 cts. | Ester (% of taken up retinol) (N-tera2; N-tera2, overnight): 97% | P3 (% of taken up retinol) (N-tera2; N-tera2, overnight): 0.4% | Retinol (% of taken up retinol) (N-tera2; N-tera2, overnight): 0.7% | Total cts. (SKL3; SKL3): 1.6 × 10^5 cts. | Ester (% of taken up retinol) (SKL3; SKL3, overnight): 24% | P3 (% of taken up retinol) (SKL3; SKL3, overnight): 2% | Retinol (% of taken up retinol) (SKL3; SKL3, overnight): 71% | Total cts. (SK-N-SH): 2.0 × 10^5 cts. | Ester (% of taken up retinol) (SK-N-SH; overnight): 25% | P3 (% of taken up retinol) (SK-N-SH; overnight): 0.9% | Total cts. (Ket): 4.6 × 10^5 cts. | Ester (% of taken up retinol) (Ket; overnight): 41% | P3 (% of taken up retinol) (Ket; overnight): 3% | Retinol (% of taken up retinol) (Ket; overnight): 52% | Total cts. (Raji (37°); 2.5 × 10^6 cells): 4.0 × 10^5 cts. | Ester (% of taken up retinol) (Raji (37°); overnight): 14% | P3 (% of taken up retinol) (Raji (37°); overnight): 3% | Retinol (% of taken up retinol) (Raji (37°); overnight): 79% | Total cts. (RPMI): 1.2 × 10^5 cts. | Ester (% of taken up retinol) (RPMI; overnight): 38% | P3 (% of taken up retinol) (RPMI; overnight): 2% | Retinol (% of taken up retinol) (RPMI; overnight): 58% | Total cts. (SK3886; SK3886): 4.7 × 10^5 cts. | Ester (% of taken up retinol) (SK3886; SK3886, overnight): 2% | P3 (% of taken up retinol) (SK3886; SK3886, overnight): 3% | Retinol (% of taken up retinol) (SK3886; SK3886, overnight): 92% | Total cts. (ERLD): 2.8 × 10^5 cts. | Ester (% of taken up retinol) (ERLD; overnight): 20% | P3 (% of taken up retinol) (ERLD; overnight): 9% | Retinol (% of taken up retinol) (ERLD; overnight): 63% | CPM anti-CD3, 10^-6 M Retinol (thymocytes [2]): 79,247 ± 17,567 CPM

CC(C=CC=C(C)C(O)CO)=CC=C1C(C)=CCCC1(C)C (stereo not drawn) [14HRR, 14-hydroxy-4,14-retro-retinol]
proliferative response (thymocytes [1]): vigorous responses were elicited | potency relative to retinol in supporting T cell proliferation (thymocytes [1]; provided at 12 hour intervals): as potent as retinol | growth over a four day period (thymocytes [1]): exponential growth | effect of a single addition at initiation of culture (thymocytes [1]; single addition): ineffective; also recorded: does not enable sustained proliferation; also recorded: insufficient to drive T cell proliferation | lability relative to retinal [3]: much more labile molecule than retinal | potency relative to retinol in preventing necrotic cell death (B lymphocytes; on a concentration basis, previous studies): 20-40 times more potent | concentration at which activity was demonstrated (B lymphocytes; [4]): 5 µM | difference in active concentration, 14HRR versus retinal (B lymphocytes; [4]): 40 fold | support of B cell growth/proliferation (B lymphocytes; previous studies): capable of supporting the proliferation of B cells in the absence of an external supply of retinol | expression of immediate early genes (fibroblasts): facilitates the expression of immediate early genes in fibroblasts
